Laboratory results as given in patent US9387213B2, “Small molecules inhibiting oncoprotein Myc” (Health Research, Inc., priority 2012, dated 2016).

Assays:
HO-null cells = experiment: Secondary filter for Myc specificity: cell growth inhibition, methylene blue staining; type: cell-based; conditions: Rattus norvegicus, 72 h, read-out: ID50 HO-null
Procedure: (§1) FIG. 4 illustrates the myc specificity of tested compounds. Rat1a cells expressing c-myc, L-myc or N-myc or lacking any Myc (null) were treated for 72 h with a range of hit compound concentrations. The cells were then fixed and stained with methylene blue and the percentage of cells in the presence of compound compared to DMSO only control was calculated.
(§2) Validated hits were divided into classes when two or more compounds shared significant structural similarity. The ID50 for N-myc transactivation (the inhibitory dose resulting in 50% decrease in luciferase activity) for each hit was calculated from the dose-response N-myc responsive reporter assay. Compounds within each class were ranked by their ID50 for N-myc transactivation and the best compounds within each class were chosen for further studies. In addition, the best of the structurally unique compounds were also analyzed. A total of 46 hits were passed through a secondary filter designed to determine the specificity of the hits for Myc proteins. For this filter, we used a panel of cell lines derived from Rat1a cells (kindly provided by Michael Cole, Dartmouth University): HO-null-c-Myc deficient cells due to homologous recombination that express neither N-myc nor L-myc HO-c-Myc, HO-L-myc and HO-N-myc derived by retroviral transduction of the corresponding Myc genes into HO-null cells. Since each cell line expresses only a single Myc or no Myc family members, we could identify compounds that act through Myc family members as well as which Myc family members. […] The 18 Myc-specific compounds identified during the screening and filtering process are presented in Table 1 and represent distinct classes of molecules, including pyrazoles (e.g., N147A7, N47E10, N147G5), tetrazoles (e.g., N77A7) and 3-bromophenol (e.g., N4G6).

HO-c-Myc cells = experiment: as above; type: cell-based, rat; conditions: for Myc Index C: ID50 in HO-null cells divided by ID50 in HO-c-myc cells; for IC50: Rattus norvegicus, cell growth inhibition, 72 h, methylene blue, read-out: ID50 HO-c-myc
Procedure: as §1, §2

HO-N-myc cells = experiment: as above; type: cell-based, rat; conditions: for Myc Index N: ID50 in HO-null cells divided by ID50 in HO—N-myc cells; for IC50: Rattus norvegicus, cell growth inhibition, 72 h, methylene blue, read-out: ID50 HO—N-myc
Procedure: as §1, §2

in vitro = experiment: in vitro
Procedure: Additionally, several of the N77A7 analogs were subjected to the test for the metabolic stability in human and mouse liver microsomes. Briefly, 1 μM of test compound was incubated with microsomal protein (human liver microsomes: 0.5 mg/mL; mouse liver microsomes 0.5 mg/mL) and buffer (100 mM potassium phosphate, pH 7.4, 5 mM magnesium chloride). The positive control was 5 μM testosterone. The reaction was equilibrated at 37 C in a shaking water bath for 3 to 5 minutes. After equilibration, an aliquot was removed and combined with 50/50 acetonitrile/water containing 0.1% formic acid and internal standard to terminate the reaction. 1 mM NADPH was immediately added and the tube was returned to the water bath. Five sample time points were taken (0, 10, 20, 30, and 60 minutes). Aliquots were removed and combined with 50/50 acetonitrile/water containing 0.1% formic acid and internal standard to terminate the reaction. The samples were mixed for 10 minutes and centrifuged. The supernatant from each sample was diluted (if necessary) and then transferred to vials for analysis by LC-MS/MS for the test compound and internal standard without calibration standards. The percent remaining at each time point was determined by the test compound's peak area response ratio versus the 0 minute sample.

SK-Mel-103 = experiment: Suppression of proliferation / senescence induction in melanoma line; type: cell-based; conditions: Homo sapiens
Description: (§3) 260 analogs of N77A7 were selected from several commercially available libraries of small molecules based on the structural similarities with N77A7. The compounds were screened for the ability to permanently suppress proliferation and induce senescence in cells from melanoma lines SK-Mel-19 and SK-Mel-103. Based on the above-described screening procedure, seven small molecules were identified as having IC50 values lower than that of N77A7.

SK-Mel-19 = experiment: as above; type: cell-based; conditions: Homo sapiens, SK-MEL19
Description: as §3

[1] = human, microsomes, 0 h, 1 μM, pH 7.4
[2] = human, microsomes, 1 μM, pH 7.4
[3] = human, microsomes, 0.5 h, 1 μM, pH 7.4
[4] = human, microsomes, 1 h, 1 μM, pH 7.4
[5] = mouse, microsomes, 0 h, 1 μM, pH 7.4
[6] = mouse, microsomes, 1 μM, pH 7.4
[7] = mouse, microsomes, 0.5 h, 1 μM, pH 7.4
[8] = mouse, microsomes, 1 h, 1 μM, pH 7.4

Structure (SMILES) | IC50 (HO-null cells) | Myc Index C (HO-c-Myc cells) | IC50 (HO-c-Myc cells) | Myc Index N (HO-N-myc cells) | IC50 (HO-N-myc cells) | further results
COc1ccc(OCC(=O)N/N=C\c2cc(O)c(O)c(Br)c2)c(Br)c1 [Compound N4G6] | > 100 µM | >3 | 32.6 µM | >10 | 10.2 µM | 
CCOc1cccc(/C=N/NC(=O)CSc2nc3ccccc3[nH]2)c1O [Compound N144G3] | 83.2 µM | 3.22 | 25.8 µM | 4.7 | 17.8 µM | 
O=[N+]([O-])c1cccc(Nc2ncnc3ccc(Br)cc23)c1 [Compound N117E2] | > 50 µM | >7 | 7.49 µM | >6 | 8.8 µM | 
CCN(CC)c1ccc(/C=N/NC(=O)Cn2c3ccccc3c(=O)c3ccccc32)c(O)c1 [Compound 2] |  |  |  |  |  | Percent Remaining 0 min (in vitro; [1]): 100%; Half-life (in vitro; [2]): >60 min; Percent Remaining 10 min (in vitro; [2]): 119%; Percent Remaining 20 min (in vitro; [2]): 91%; Percent Remaining 30 min (in vitro; [3]): 83%; Percent Remaining 60 min (in vitro; [4]): 74%; half-life at 1 µM (in vitro; human, microsomes, pH 7.4): > 60 min; microsomal CLint at 1 μM (in vitro; human, microsomes, pH 7.4): < 20 µL/min/mg; Percent Remaining 0 min (in vitro; [5]): 100%; Percent Remaining 10 min (in vitro; [6]): 45%; Percent Remaining 20 min (in vitro; [6]): 32%; Percent Remaining 30 min (in vitro; [7]): 26%; Percent Remaining 60 min (in vitro; [8]): 21%; half-life at 1 µM (in vitro; mouse, microsomes, pH 7.4): 13.5 min; microsomal CLint at 1 μM (in vitro; mouse, microsomes, pH 7.4): 100 µL/min/mg; IC50 (SK-Mel-103): 0.4 µM; IC50 (SK-Mel-19): 0.4 µM
CCN(CC)c1ccc(/C=N/NC(=O)c2cc(Br)ccc2O)c(O)c1 [Compound N6008] | > 25 µM | >11 | 2.32 µM | >11 | 2.34 µM | 
CCN(CC)Cc1c(C(=O)N/N=C/c2ccc(N(CC)CC)cc2O)nnn1-c1nonc1N [Compound 6] |  |  |  |  |  | Percent Remaining 0 min (in vitro; [1]): 100%; Percent Remaining 10 min (in vitro; [2]): 49%; Percent Remaining 20 min (in vitro; [2]): 31%; Percent Remaining 30 min (in vitro; [3]): 18%; Percent Remaining 60 min (in vitro; [4]): 6.9%; half-life at 1 µM (in vitro; human, microsomes, pH 7.4): 11.5 min; microsomal CLint at 1 μM (in vitro; human, microsomes, pH 7.4): 120 µL/min/mg; Percent Remaining 0 min (in vitro; [5]): 100%; Percent Remaining 10 min (in vitro; [6]): 20%; Percent Remaining 20 min (in vitro; [6]): 8.9%; Percent Remaining 30 min (in vitro; [7]): 4.3%; Percent Remaining 60 min (in vitro; [8]): 1.2%; half-life at 1 µM (in vitro; mouse, microsomes, pH 7.4): 4.6 min; microsomal CLint at 1 μM (in vitro; mouse, microsomes, pH 7.4): 300 µL/min/mg; IC50 (SK-Mel-103): 0.25 µM; IC50 (SK-Mel-19): 0.35 µM
O=C(N/N=C\c1cc(Cc2ccccc2Cl)ccc1O)c1cncc(Br)c1 [Compound N171H10] | > 25 µM | >10 | 2.6 µM | >6 | 4 µM | 
C[C@]12CC[C@H]3[C@@H](CCC4=CC(=O)CC[C@@]43C)[C@@H]1CC[C@@H]2O [Testosterone, testosterone, reference compound] |  |  |  |  |  | Percent Remaining 10 min (in vitro; human liver microsomes 0.5 mg/mL, 1 μM test compound (testosterone 5 μM)): 78%; Percent Remaining 30 min (in vitro; human liver microsomes 0.5 mg/mL, 1 μM test compound (testosterone 5 μM), 30 min): 40%; Percent Remaining 60 min (in vitro; human liver microsomes 0.5 mg/mL, 1 μM test compound (testosterone 5 μM), 60 min): 19%; Percent Remaining 0 min (in vitro; human liver microsomes 0.5 mg/mL, 1 μM test compound (testosterone positive control 5 μM), 0 min): 100%; half-life at 1 µM (in vitro; human, microsomes, pH 7.4): 23.9 min; Percent Remaining 10 min (in vitro; mouse liver microsomes 0.5 mg/mL, 1 μM test compound (testosterone 5 μM)): 19%; Percent Remaining 30 min (in vitro; mouse liver microsomes 0.5 mg/mL, 1 μM test compound (testosterone 5 μM), 30 min): <1.0%; Percent Remaining 60 min (in vitro; mouse liver microsomes 0.5 mg/mL, 1 μM test compound (testosterone 5 μM), 60 min): <1.0%; Percent Remaining 0 min (in vitro; mouse liver microsomes 0.5 mg/mL, 1 μM test compound (testosterone positive control 5 μM), 0 min): 100%; half-life at 1 µM (in vitro; mouse, microsomes, pH 7.4): 4.2 min
C=CCc1cccc(/C=N/NC(=O)c2cc(C(C)(C)C)n[nH]2)c1O [Compound N147G5] | > 25 µM | >6 | 4.2 µM | >5 | 5 µM | 
CC(C)(C)c1cc(C(=O)N/N=C/c2ccc(O)cc2O)n(-c2ccccc2)n1 [Compound N47E10] | 7.21 µM | 2.8 | 2.54 µM | 5 | 1.44 µM | 
CCCN(CCC)Cc1c(C(=O)N/N=C/c2ccc(N(CC)CC)cc2O)nnn1-c1nonc1N [Compound 7] |  |  |  |  |  | Percent Remaining 0 min (in vitro; [1]): 100%; Percent Remaining 10 min (in vitro; [2]): 46%; Percent Remaining 20 min (in vitro; [2]): 25%; Percent Remaining 30 min (in vitro; [3]): 20%; Percent Remaining 60 min (in vitro; [4]): 11%; half-life at 1 µM (in vitro; human, microsomes, pH 7.4): 10.7 min; microsomal CLint at 1 μM (in vitro; human, microsomes, pH 7.4): 130 µL/min/mg; Percent Remaining 0 min (in vitro; [5]): 100%; Percent Remaining 10 min (in vitro; [6]): 26%; Percent Remaining 20 min (in vitro; [6]): 7.1%; Percent Remaining 30 min (in vitro; [7]): 3.8%; Percent Remaining 60 min (in vitro; [8]): 1.4%; half-life at 1 µM (in vitro; mouse, microsomes, pH 7.4): 5.2 min; microsomal CLint at 1 μM (in vitro; mouse, microsomes, pH 7.4): 270 µL/min/mg; IC50 (SK-Mel-103): 0.25 µM; IC50 (SK-Mel-19): 0.35 µM
O=c1[nH]c2ccc(/N=C/c3cn(Cc4ccc(Cl)cc4Cl)c4ccccc34)cc2[nH]1 [Compound N18C5] | > 100 µM |  | > 100 µM | >6 | 16 µM | 
c1ccc(-c2nnc(-c3ccccn3)nc2-c2ccccc2)cc1 [Compound N49C4] | 159 µM |  | 19.6 µM | 8.1 | ~728 µM | 
O=C(Oc1c(C(=O)Nc2ccc(Cl)c([N+](=O)[O-])c2)ccc2ccccc12)c1ccccc1 [Compound N6A8] | 21.1 µM | 2.4 | 8.86 µM | 2.2 | 9.71 µM | 
CC(=O)NC(c1ccc2c(c1)OCO2)c1ccc2cccnc2c1O (stereo not drawn) [Compound N103A8] | 7.57 µM | 4.7 | 1.62 µM | 4.5 | 1.69 µM | 
O=C(N/N=C/c1c(O)ccc2ccccc12)c1cc(C23CC4CC(CC(C4)C2)C3)n[nH]1 [Compound N147A7] | 5.12 µM | 1.3 | 3.94 µM | 2.7 | 1.9 µM | 
CC(C)Nc1ncnc2ccc(Br)cc12 [Compound N117G10] | 28.2 µM | 4.5 | 6.27 µM | 6 | 4.58 µM | 
CN1C(=O)/C(=C\c2cn(Cc3ccccc3)c3ccccc23)C(=O)NC1=S [Compound N423F7] | 1980 µM | 22 | 89.1 µM | 17 | 120 µM | 
O=C(NC(NC(=S)Nc1ccc(I)cc1)C(Cl)(Cl)Cl)c1cccc([N+](=O)[O-])c1 (stereo not drawn) [Compound N121F3] | 23.5 µM | 2.1 | 11.3 µM | 2.4 | 9.7 µM | 
Nc1nonc1-n1nnc(C(=O)N/N=C/c2ccccc2O)c1CN1CCc2ccccc2C1 [Compound 5] |  |  |  |  |  | IC50 (SK-Mel-103): 0.35 µM; IC50 (SK-Mel-19): 0.6 µM
Cc1ccc(/C=N/NC(=O)c2cc(-c3ccccc3)n[nH]2)c(O)c1 [Compound 1] |  |  |  |  |  | IC50 (SK-Mel-103): 2.5 µM; IC50 (SK-Mel-19): 4 µM
O=C(COc1ccc2ccccc2c1)N/N=C\c1cc(O)c(O)c(Br)c1 [Compound N4D2] | > 100 µM | >3 | 33.8 µM | >1.1 | 88 µM | 
